In patent publication US9890185B2, “Urea derivatives useful as kinase inhibitors” (Respivert Limited, priority 2013, dated 2018) one finds IC50 data, which are given here for 20 compounds.

Like-named read-outs stand apart in the source and are kept apart here.

The target of one assay is GSK 3α (Homo sapiens (Human), UniProt P49840). Kind of assay: GSK 3α enzyme inhibition (FRET, Z-LYTE, Method 2). In kind it is biochemical. To be noted: read-out: IC50 Values for Enzyme Inhibition, GSK3α. On the procedure:
The enzyme inhibitory activities of compounds disclosed herein are determined by FRET using synthetic peptides labelled with both donor and acceptor fluorophores (Z-LYTE, Invitrogen Ltd., Paisley, UK).
The following two assay variants can be used for determination of GSK 3α inhibition.
The inhibitory activities of compounds of the invention against the GSK 3α enzyme isoform (Invitrogen), are evaluated by determining the level of activation/phosphorylation of the target peptide. The GSK3-α protein (500 ng/mL, 2.5 μL) is mixed with the test compound (2.5 μL at either 4 μg/mL, 0.4 μg/mL, 0.04 μg/mL, or 0.004 μg/mL) for 2 hr at RT. The FRET peptide (8 μM, 2.5 μL), which is a phosphorylation target for GSK3α, and ATP (40 μM, 2.5 μL) are then added to the enzyme/compound mixture and the resulting mixture incubated for 1 hr. Development reagent (protease, 5 μL) is added for 1 hr prior to detection in a fluorescence microplate reader (Varioskan® Flash, ThermoFisher Scientific).
In all cases, the site-specific protease cleaves non-phosphorylated peptide only and eliminates the FRET signal. Phosphorylation levels of each reaction are calculated using the ratio of coumarin emission (donor) over fluorescein emission (acceptor), for which high ratios indicate high phosphorylation and low ratios indicate low phosphorylation levels. The percentage inhibition of each reaction is calculated relative to non-inhibited control and the 50% inhibitory concentration (IC50 value) is then calculated from the concentration-response curve.
This method follows the same steps as Method 1 above, but utilises a shorter period of mixing of the test compound (105 minutes instead of 2 hours) with the GSK3-α protein.

In a further assay the test system is PBMCs. The experiment in a line: LPS-induced IL-8 release in PBMC cells (assay b). In kind it is cell-based, human. Conditions: LPS-stimulated PBMCs, read-out: IC50 Values for Inhibition of Cytokine Release, PBMCs IL-8. On the procedure:
Peripheral blood mononuclear cells (PBMCs) from healthy subjects are separated from whole blood using a density gradient (Lymphoprep, Axis-Shield Healthcare). The PBMCs are seeded in 96 well plates and treated with compounds at the desired concentration for 2 hours before addition of 1 ng/mL LPS (Escherichia Coli 0111:B4 from Sigma Aldrich) for 24 hours under normal tissue culture conditions (37° C., 5% CO2). The supernatant is harvested for determination of IL-8 and TNFα concentrations by sandwich ELISA (Duo-set, R&D systems) and read on the fluorescence microplate reader (Varioskan® Flash, ThermoFisher Scientific). The concentration at 50% inhibition (IC50) of IL-8 and TNFα production is calculated from the dose response curve.

Sequence of GSK 3α (P49840 whole entry): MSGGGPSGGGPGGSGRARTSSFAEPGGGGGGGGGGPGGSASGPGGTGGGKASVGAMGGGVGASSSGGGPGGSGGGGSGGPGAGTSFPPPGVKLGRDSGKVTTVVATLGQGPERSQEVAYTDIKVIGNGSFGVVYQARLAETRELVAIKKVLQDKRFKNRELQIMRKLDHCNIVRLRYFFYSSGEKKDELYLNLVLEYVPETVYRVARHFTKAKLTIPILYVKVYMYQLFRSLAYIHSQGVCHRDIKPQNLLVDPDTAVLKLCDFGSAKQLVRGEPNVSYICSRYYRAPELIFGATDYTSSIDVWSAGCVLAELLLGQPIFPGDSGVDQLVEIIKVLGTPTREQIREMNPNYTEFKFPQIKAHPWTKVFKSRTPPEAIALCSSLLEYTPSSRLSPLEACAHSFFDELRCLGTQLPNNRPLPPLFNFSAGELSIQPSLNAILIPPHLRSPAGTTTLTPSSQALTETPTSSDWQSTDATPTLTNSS

For `COc1cc(Nc2cc(Oc3ccc(NC(=O)Nc4cc(C(C)(C)C)cc(P(C)(C)=O)c4OC)c4ccccc34)ccn2)ccc1C(=O)NCCN(C)C` [79(c), 4-[[4-[[4-[(5-tert-Butyl-3-dimethylphosphoryl-2-methoxy-phenyl)carbamoylamino]-1-naphthyl]oxy]-2-pyridyl]amino]-N-(2-dimethylaminoethyl)-2-methoxy-benzamide], the IC50 (as a rule, the midpoint of a concentration-inhibition curve) on GSK 3α turned out to be 1770 nM; in the assay on PBMCs (Homo sapiens, PBMC), 7 nM.
In the case of `COc1cc(Nc2cc(Oc3ccc(NC(=O)Nc4cc(C(C)(C)C)cc(P(C)(C)=O)c4OC)c4ccccc34)ccn2)ccc1C(=O)O` [Example 76, 4-((4-((4-(3-(5-(tert-Butyl)-3-(dimethylphosphoryl)-2-methoxyphenyl)ureido)naphthalen-1-yl)oxy)pyridin-2-yl)amino)-2-methoxybenzoic acid], the IC50 was 70 nM on GSK 3α and 41.5 nM in the assay on PBMCs (Homo sapiens, PBMC).
As for `COc1cc(Nc2cc(Oc3ccc(NC(=O)Nc4cc(C(C)(C)C)cc(P(C)(C)=O)c4OC)c4ccccc34)ccn2)cc(C(=O)NCCN2CC[S+]([O-])CC2)c1` [38(am), 3-((4-((4-(3-(5-(tert-Butyl)-3-(dimethylphosphoryl)-2-methoxyphenyl)ureido)naphthalen-1-yl)oxy)pyridin-2-yl)amino)-5-methoxy-N-(2-(1-oxidothiomorpholino)ethyl)benzamide], the IC50 at GSK 3α came to 1500 nM; with PBMCs (Homo sapiens, PBMC), 6.2 nM.
`COc1c(NC(=O)Nc2ccc(Oc3ccnc(Nc4ccccc4)n3)c3ccccc23)cc(C(C)(C)C)cc1C(=O)NCCN1CCCC1` [15(u), 5-(tert-butyl)-2-methoxy-3-(3-(4-((2-(phenylamino)pyrimidin-4-yl)oxy)naphthalen-1-yl)ureido)-N-(2-(pyrrolidin-1-yl)ethyl)benzamide]: the IC50 stood at 3060 nM at GSK 3α and 7.9 nM in the assay on PBMCs (Homo sapiens, PBMC).
Take `COc1c(NC(=O)Nc2ccc(Oc3ccnc(Nc4cncnc4)n3)c3ccccc23)cc(C(C)(C)C)cc1P(C)(C)=O` [15(r), 1-(5-(tert-butyl)-3-(dimethylphosphoryl)-2-methoxyphenyl)-3-(4-((2-(pyrimidin-5-ylamino)pyrimidin-4-yl)oxy)naphthalen-1-yl)urea]: the concentration for half-maximal inhibition (IC50) at GSK 3α worked out at 188 nM; with PBMCs (Homo sapiens, PBMC), 4.8 nM.
On the same counts, the results for `COc1c(NC(=O)Nc2ccc(Oc3ccnc(Nc4cncc(N(C)C)n4)c3)c3ccccc23)cc(C(C)(C)C)cc1P(C)(C)=O` [15(ae), 1-(5-(tert-butyl)-3-(dimethylphosphoryl)-2-methoxyphenyl)-3-(4-((2-((6-(dimethylamino)pyrazin-2-yl)amino)pyridin-4-yl)oxy)naphthalen-1-yl)urea] are 871 nM and 3.9 nM.
On to `COCCOCCOCCNC(=O)c1cc(Nc2cc(Oc3ccc(NC(=O)Nc4cc(C(C)(C)C)cc(CC(N)=O)c4OC)c(Cl)c3Cl)ccn2)cc(OC)c1` [38(ag), 3-((4-(4-(3-(3-(2-Amino-2-oxoethyl)-5-(tert-butyl)-2-methoxyphenyl)ureido)-2,3-dichlorophenoxy)pyridin-2-yl)amino)-5-methoxy-N-(2-(2-(2-methoxyethoxy)ethoxy)ethyl)benzamide], for which the IC50 at GSK 3α stood at 370 nM; in the assay with PBMCs (Homo sapiens, PBMC), 0.6 nM.
On the same counts, the results for `COc1c(CS(C)(=O)=O)cc(C(C)(C)C)cc1NC(=O)Nc1ccc(Oc2ccnc(Nc3ccccc3)n2)c2ccccc12` [15(n), 1-(5-(tert-butyl)-2-methoxy-3-((methylsulfonyl)methyl)phenyl)-3-(4-((2-(phenylamino)-pyrimidin-4-yl)oxy)naphthalen-1-yl)urea] are 1640 nM and 13.5 nM.
Take `COc1ccccc1Nc1nccc(Oc2ccc(NC(=O)Nc3cc(C(C)(C)C)cc(P(C)(C)=O)c3OC)c3ccccc23)n1` [15(f), 1-(5-(tert-butyl)-3-(dimethylphosphoryl)-2-methoxyphenyl)-3-(4-((2-((2-methoxy-phenyl)amino)pyrimidin-4-yl)oxy)naphthalen-1-yl)urea]: the IC50 at GSK 3α was determined as 3100 nM; in the assay on PBMCs it was 26.2 nM.
In the case of `COc1c(NC(=O)Nc2ccc(Oc3ccnc(Nc4ccccc4)c3)c3ccccc23)cc(C(C)(C)C)cc1C(=O)NCCN1CCCC1` [15(ag), 5-(tert-butyl)-2-methoxy-3-(3-(4-((2-(phenylamino)pyridin-4-yl)oxy)naphthalen-1-yl)ureido)-N-(2-(pyrrolidin-1-yl)ethyl)benzamide], the IC50 at GSK 3α was determined as 5810 nM; with PBMCs (Homo sapiens, PBMC), 9.8 nM.
On the same counts, the results for `CC(C)(C)c1cc(NC(=O)Nc2ccc(Oc3ccnc(Nc4ccccc4)c3)c3ccccc23)c(O)c(P(C)(C)=O)c1` [Example 39, 1-(5-(tert-Butyl)-3-(dimethylphosphoryl)-2-hydroxyphenyl)-3-(4-((2-(phenylamino)pyridin-4-yl)oxy)naphthalen-1-yl)urea] are more than 12600 nM and 31.4 nM.
For `COc1c(NC(=O)Nc2ccc(Oc3ccnc(Nc4cccc(N=S(C)(C)=O)c4)n3)c3ccccc23)cc(C(C)(C)C)cc1P(C)(C)=O` [Example 22, 1-(5-(tert-Butyl)-3-(dimethylphosphoryl)-2-methoxyphenyl)-3-(4-((2-((3-((dimethyl(oxo)-lambda-6-sulfanylidene)amino)phenyl)amino)pyrimidin-4-yl)oxy)naphthalen-1-yl)urea] the same measures were 280 nM and 3.3 nM.
For `COc1c(NC(=O)Nc2ccc(Oc3ccnc(Nc4cccc(OS(C)(=O)=O)c4)n3)c3ccccc23)cc(C(C)(C)C)cc1P(C)(C)=O` [15(t), 3-((4-((4-(3-(5-(tert-butyl)-3-(dimethylphosphoryl)-2-methoxyphenyl)ureido)-naphthalen-1-yl)oxy)pyrimidin-24)amino)phenyl methanesulfonate] the same measures were 283 nM and 0.5 nM.
In the case of `COc1c(NC(=O)Nc2ccc(Oc3ccnc(Nc4ccccc4)n3)c3ccccc23)cc(C(C)(C)C)cc1[S+](C)[O-]` (stereo not shown) [15(k), 1-(5-(tert-butyl)-2-methoxy-3-(methylsulfinyl)phenyl)-3-(4-((2-(phenylamino)pyrimidin-4-yl)oxy)naphthalen-1-yl)urea], the 50% inhibitory concentration (IC50) on GSK 3α amounted to 1170 nM; in the assay with PBMCs (Homo sapiens, PBMC), 5.6 nM.
For `COc1ccc(Nc2nccc(Oc3ccc(NC(=O)Nc4cc(C(C)(C)C)cc(P(C)(C)=O)c4OC)c4ccccc34)n2)cc1` [15(h), 1-(5-(tert-butyl)-3-(dimethylphosphoryl)-2-methoxyphenyl)-3-(4-((2-((4-methoxy-phenyl)amino)pyrimidin-4-yl)oxy)naphthalen-1-yl)urea] the same measures were 779 nM and 4.6 nM.
On the same counts, the results for `COc1cccc(Nc2cc(Oc3ccc(NC(=O)Nc4cc(C(C)(C)C)cc(CC(=O)N(C)C)c4OC)c4ccccc34)ccn2)c1` [38(i), 2-(5-(tert-Butyl)-2-methoxy-3-(3-(4-((2-((3-methoxyphenyl)amino)pyridin-4-yl)oxy)naphthalen-1-yl)ureido)phenyl)-N,N-dimethylacetamide] are more than 15400 nM and 11.4 nM.
In the case of `COc1c(NC(=O)Nc2ccc(Oc3ccnc(Nc4ccccc4)n3)c3ccccc23)cc(C(C)(C)C)cc1C(=O)NCCN1CCOCC1` [15(p), 5-(tert-butyl)-2-methoxy-N-(2-morpholinoethyl)-3-(3-(4-((2-(phenylamino)pyrimidin-4-yl)oxy)naphthalen-1-yl)ureido)benzamide], the IC50 on GSK 3α was 1950 nM; in the assay on PBMCs (Homo sapiens, PBMC), 9.4 nM.
As to `COc1c(CNC(C)=O)cc(C(C)(C)C)cc1NC(=O)Nc1ccc(Oc2ccnc(Nc3cc(C)cc(C)c3)c2)c2ccccc12` [38(p), N-(5-(tert-Butyl)-3-(3-(4-((2-((3,5-dimethylphenyl)amino)pyridin-4-yl)oxy)naphthalen-1-yl)ureido)-2-methoxybenzyl)acetamide], the IC50 was more than 15800 nM on GSK 3α and 7.2 nM with PBMCs (Homo sapiens, PBMC).
Consider `COc1c(NC(=O)Nc2ccc(Oc3ccnc(Nc4ccc5c(c4)C(=O)NC5)n3)c3ccccc23)cc(C(C)(C)C)cc1P(C)(C)=O` [15(ab), 1-(5-(tert-butyl)-3-(dimethylphosphoryl)-2-methoxyphenyl)-3-(4-((2-((3-oxoisoindolin-5-yl)amino)pyrimidin-4-yl)oxy)naphthalen-1-yl)urea], for which the IC50 at GSK 3α came to 97 nM; in the assay with PBMCs (Homo sapiens, PBMC), 5.5 nM.
On the same counts, the results for `COc1c(NC(=O)Nc2ccc(Oc3ccnc(Nc4ccc5c(c4)NC(=O)C5)n3)c3ccccc23)cc(C(C)(C)C)cc1P(C)(C)=O` [15(v), 1-(5-(tert-butyl)-3-(dimethylphosphoryl)-2-methoxyphenyl)-3-(4-((2-((2-oxoindolin-6-yl)amino)pyrimidin-4-yl)oxy)naphthalen-1-yl)urea] are 302 nM and 2.8 nM.
